Data published in US12503436B2, “Compounds and compositions for treating conditions associated with STING activity” (NOVARTIS PHARMA AG, priority 2021, dated 2025).

Molecular target: STING (Homo sapiens, UniProt Q86WV6, G230A/H232R/R293Q/R71H)
Experiment: STING reporter assay in THP1-Dual KO-IFNAR2 cells (2′3′cGAMP stimulation, luciferase reporter)
Type: cell-based
Settings: 15 μM 2′3′cGAMP stimulation, 24 h, read-out: Pharmaron, THP1_IFNAR2 STING 24 h Luci Normalized: GeoMean EC50
Outline: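 EC50 from secreted luciferase (QUANTI-Luc Plus luminescence of supernatant) after 24 h at 37 °C, 5% CO2. Cells: THP1-Dual KO-IFNAR2, treated with compound (0.0017-100 μM final) plus lipofected 2′3′cGAMP at 15 μM final.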

Chain of STING (Q86WV6 whole entry R71H/G230A/H232R/R293Q): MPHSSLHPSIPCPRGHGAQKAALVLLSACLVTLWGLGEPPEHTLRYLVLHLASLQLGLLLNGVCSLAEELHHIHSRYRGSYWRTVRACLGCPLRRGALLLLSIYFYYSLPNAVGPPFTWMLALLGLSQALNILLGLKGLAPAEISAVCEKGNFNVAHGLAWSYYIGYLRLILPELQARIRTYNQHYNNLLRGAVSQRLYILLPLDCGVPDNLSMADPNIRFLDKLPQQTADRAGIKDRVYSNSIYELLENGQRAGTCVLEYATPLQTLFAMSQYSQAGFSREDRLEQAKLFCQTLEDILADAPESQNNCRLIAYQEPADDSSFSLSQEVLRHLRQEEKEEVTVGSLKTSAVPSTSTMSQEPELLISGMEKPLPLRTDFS

Q: How did the EC50 turn out when `CC(=O)Nc1c[nH]c2ccc(CC(O)Cc3ccc(C(F)(F)F)cc3)cc12` (stereo not drawn) [Compound 284, N-(5-(2-hydroxy-3-(4-(trifluoromethyl)phenyl)propyl)-1H-indol-3-yl)acetamide] was run?
A: 0.2 to 1 µM

Q: With `CC(=O)Nc1c[nH]c2ccc(CC(C)Oc3ccc(C(F)(F)F)cc3)cc12` (stereo not drawn) [Compound 287, N-(5-(2-(4-(trifluoromethyl)phenoxy)propyl)-1H-indol-3-yl)acetamide] as the molecule, how does the EC50 read?
A: 1 to 5 µM

Q: `CC(=O)Nc1c[nH]c2ccc(CCOC3CCN(CC(F)(F)F)CC3)cc12` [Compound 288, N-(5-(2-((1-(2,2,2-trifluoroethyl)piperidin-4-yl)oxy)ethyl)-1H-indol-3-yl)acetamide] was tested. Which EC50 did it give?
A: 5 to 100 µM

Q: How did the EC50 turn out when `CC(=O)Nc1c[nH]c2ccc(OCC3(c4ccc(C(F)(F)F)cc4)CC3)cc12` [Compound 289, N-(5-((1-(4-(trifluoromethyl)phenyl)cyclopropyl)methoxy)-1H-indol-3-yl)acetamide] was run?
A: 1 to 5 µM

Q: For `CCC(=O)Nc1c[nH]c2ccc(Cc3cc(C)ccc3O)cc12` [Compound 290, N-(5-(2-hydroxy-5-methylbenzyl)-1H-indol-3-yl)propionamide], which EC50 is on record?
A: 5 to 100 µM

Q: With `CCC(=O)Nc1c[nH]c2ccc(COc3ccc(C)cc3)cc12` [Compound 291, N-(5-((p-tolyloxy)methyl)-1H-indol-3-yl)propionamide] as the molecule, how does the EC50 read?
A: 0.2 to 1 µM

Q: `CC(=O)Nc1c[nH]c2ccc(OCC[C@@H]3C[C@@H]4CN(C)C[C@@H]4C3)cc12` [Compound 292, N-(5-(2-((3aR,5r,6aS)-2-methyloctahydrocyclopenta[c]pyrrol-5-yl)ethoxy)-1H-indol-3-yl)acetamide] was tested. Which EC50 did it give?
A: 5 to 100 µM

Q: `CC(=O)Nc1c[nH]c2ccc(CCO[C@@H]3C[C@@H]4CN(CC(F)(F)F)C[C@@H]4C3)cc12` [Compound 293] was tested. Which EC50 did it give?
A: 5 to 100 µM

Q: `CC1(C(=O)Nc2c[nH]c3ccc(OCc4ccc(C(F)(F)F)cc4)cc23)CCC1` [Compound 294, 1-methyl-N-(5-((4-(trifluoromethyl)benzyl)oxy)-1H-indol-3-yl)cyclobutane-1-carboxamide] was tested. Which EC50 did it give?
A: 0.04 to 0.2 µM

Q: With `CO[C@H]1C[C@H](C(=O)Nc2c[nH]c3ccc(O[C@H]4C[C@@H](c5ccc(C(F)(F)F)cc5)C4)cc23)C1` [Compound 295, trans-3-methoxy-N-(5-(cis-3-(4-(trifluoromethyl)phenyl)cyclobutoxy)-1H-indol-3-yl)cyclobutane-1-carboxamide] as the molecule, how does the EC50 read?
A: 0.04 to 0.2 µM

Q: `CO[C@H]1C[C@H](C(=O)Nc2c[nH]c3ccc(OCC[C@@H]4C[C@@H]5CN(CC(F)(F)F)C[C@@H]5C4)cc23)C1` [Compound 296, trans-3-methoxy-N-(5-(2-((3aR,5r,6aS)-2-(2,2,2-trifluoroethyl)octahydrocyclopenta[c]pyrrol-5-yl)ethoxy)-1H-indol-3-yl)cyclobutane-1-carboxamide] was tested. Which EC50 did it give?
A: 0.04 to 0.2 µM

Q: How did the EC50 turn out when `COC1CC(C(=O)Nc2c[nH]c3ccc(CCOc4ccc(C(F)(F)F)cc4)cc23)C1` (stereo not drawn) [Compound 297, 3-methoxy-N-(5-(2-(4-(trifluoromethyl)phenoxy)ethyl)-1H-indol-3-yl)cyclobutane-1-carboxamide] was run?
A: 0.2 to 1 µM

Q: For `COCCN1CC(C(=O)Nc2c[nH]c3ccc(OCCc4ccc(C(F)(F)F)cc4)cc23)C1` [Compound 298, 1-(2-methoxyethyl)-N-(5-(4-(trifluoromethyl)phenethoxy)-1H-indol-3-yl)azetidine-3-carboxamide], which EC50 is on record?
A: 0.2 to 1 µM

Q: With `O=C(Nc1c[nH]c2ccc(OCCc3ccc(C(F)(F)F)cc3)cc12)C1CN(CCC(F)(F)F)C1` [Compound 299, N-(5-(4-(trifluoromethyl)phenethoxy)-1H-indol-3-yl)-1-(3,3,3-trifluoropropyl)azetidine-3-carboxamide] as the molecule, how does the EC50 read?
A: 0.2 to 1 µM

Q: `CO[C@H]1C[C@H](C(=O)Nc2c[nH]c3ccc(OCc4ccc(C(F)(F)F)cc4)cc23)C1` [Compound 300, trans-3-methoxy-N-(5-((4-(trifluoromethyl)benzyl)oxy)-1H-indol-3-yl)cyclobutane-1-carboxamide] was tested. Which EC50 did it give?
A: 0.04 to 0.2 µM
